Source: US20260008995A1, “ISOLATED […], COMPOSITIONS COMPRISING THE SAME, AND USES THEREOF” (MOON (GUANGZHOU) BIOTECH CO., LTD., priority 2023, published 2026)

Legend:
Strain MNH04863 = assay: antibiotic susceptibility testing, disk diffusion test; type: cell-based, Christensenella sp.; settings: for MNH04863 Inhibition Zone Diameter: disk diffusion, strain MNH04863; for susceptibility of strain MNH04863 to the antibiotic: result in words
Description: (§1) Antibiotic susceptibility testing was performed separately for each strain using the disk diffusion test.

Strain MNH05119 = assay: as above; type: cell-based, Christensenella sp.; settings: for MNH05119 Inhibition Zone Diameter: disk diffusion, strain MNH05119; for susceptibility of strain MNH05119 to the antibiotic: result in words
Description: as §1

Strain MNH06163 = assay: as above; type: cell-based, Christensenella sp.; settings: for MNH06163 Inhibition Zone Diameter: disk diffusion, strain MNH06163; for susceptibility of strain MNH06163 to the antibiotic: result in words
Description: as §1

[1] = tested on: type II diabetic mice (db/db); assay: combination of MNH05119 and metformin in type II diabetic model mice (Example 7); type: in vivo, BKS-Leprem2Cd479/Gpt (db/db) mice; settings: 28 days, MNH05119 2×10^10 CFU/mouse twice daily, metformin 250 mg/kg once daily, oral gavage
Description: (1) Experimental animals: The experimental mice were BKS-Leprem2Cd479/Gpt (db/db) mice, aged 5-6 weeks, 32 mice in total, purchased from GuangDong GemPharmatech Co., Ltd.
The activated strain was inoculated in MM01 liquid medium and cultured anaerobically to obtain a sufficient amount of cultures. These cultures were centrifuged, concentrated and resuspended in a solvent to obtain the subjects with purity and viable bacteria counts (1×10^11 CFU/mL) that satisfy the requirements of the animal experiments.
3) Negative control (HFD-control group): PBS-Cys was used as a negative control.
5) Experimental procedure: 5 to 6-week-old of 32 BKS-Leprem2Cd479/Gpt (db/db) male
mice were randomly grouped according to their body weights after quarantine, with 8 mice/group divided into 4 groups. […] All data were expressed as mean±SD, graphed and statistically analyzed using GraphPad Prism 8.0.2 software. […]
6) Oral Glucose Tolerance Test (OGTT): On the 27th day (Day27) of administration, OGTT was determined after 12 h of fasting (e.g., fasting from 20:30:00 μm to 08:30:00 μm the following day). The fasting body weights of the mice were measured and glucose was administered by gavage at a dose of 2 g/kg (glucose g/mouse fasting body weight kg). Fasting blood glucose as well as blood glucose values at 15 min, 30 min, 60 min, 90 min and 120 min post-glucose administration were measured.

| Molecule | MNH04863 Inhibition Zone Diameter (Strain MNH04863) [mm] | susceptibility of strain MNH04863 to the antibiotic (Strain MNH04863) | MNH05119 Inhibition Zone Diameter (Strain MNH05119) [mm] | susceptibility of strain MNH05119 to the antibiotic (Strain MNH05119) | MNH06163 Inhibition Zone Diameter (Strain MNH06163) [mm] | susceptibility of strain MNH06163 to the antibiotic (Strain MNH06163) | reduction of fasting blood glucose value compared to negative control group [1] [%] |
| --- | --- | --- | --- | --- | --- | --- | --- |
| Gentamycin [Gentamycin (GEN)] | 0 | resistance | 0 | resistance | 0 | resistance | – |
| CCC[C@@H]1C[C@@H](C(=O)N[C@@H]([C@H]2O[C@H](SC)[C@H](O)[C@@H](O)[C@H]2O)[C@@H](C)O)N(C)C1 [Lincomycin (LIN), Lincomycin] | 29.86 | sensitive | 0 | resistance | 0 | resistance | – |
| CO/N=C(\C(=O)N[C@@H]1C(=O)N2C(C(=O)O)=C(CSc3nc(=O)c(=O)[nH]n3C)CS[C@H]12)c1csc(N)n1 [Ceftriaxone (CTR), Ceftriaxone] | 37.32 | sensitive | 0 | resistance | 0 | resistance | – |
| Compound sulfamethoxazole [sulfamethoxazole (T/S)] | 0 | resistance | 0 | resistance | 0 | resistance | – |
| CC1(C)S[C@@H]2[C@H](NC(=O)[C@H](N)c3ccccc3)C(=O)N2[C@H]1C(=O)O [Ampicillin (AMP), Ampicillin] | 0 | resistance | 0 | resistance | 0 | resistance | – |
| CN(C)[C@@H]1C(O)=C(C(N)=O)C(=O)[C@@]2(O)C(O)=C3C(=O)c4c(O)cccc4[C@@](C)(O)[C@H]3C[C@@H]12 [Tetracycline (TET), Tetracycline] | 46.11 | – | 24.12 | – | 18.14 | – | – |
| O=C(N[C@H](CO)[C@H](O)c1ccc([N+](=O)[O-])cc1)C(Cl)Cl [Chloramphenicol (CLM), Chloramphenicol] | 38.88 | sensitive | 32.49 | sensitive | 21.59 | sensitive | – |
| CN(C)C(=N)N=C(N)N [metformin] | – | – | – | – | – | – | 50 |
| CC[C@H]1OC(=O)[C@H](C)[C@@H](O[C@H]2C[C@@](C)(OC)[C@@H](O)[C@H](C)O2)[C@H](C)[C@@H](O[C@@H]2O[C@H](C)C[C@H](N(C)C)[C@H]2O)[C@](C)(O)C[C@@H](C)C(=O)[C@H](C)[C@@H](O)[C@]1(C)O [Erythromycin (ERM), Erythromycin] | 16.82 | sensitive | 31.65 | sensitive | 8.72 | sensitive | – |
| O=C(O)c1cn(C2CC2)c2cc(N3CCNCC3)c(F)cc2c1=O [Ciprofloxacin (CFX), Ciprofloxacin] | 0 | resistance | 0 | resistance | 0 | resistance | – |
| Penicillin [Penicillin (PEN)] | 43.06 | sensitive | 0 | resistance | 0 | resistance | – |
